# Assays:
# Botrytis cinerea = assay: Liquid culture test in well plates, Botrytis cinerea (gray mould), growth inhibition; type: cell-based; details: 72 hours, 24° C.
# Procedure: (§1) Mycelia fragments or conidia suspensions of a fungus, prepared either freshly from liquid cultures of the fungus or from cryogenic storage, are directly mixed into nutrient broth. DMSO solutions of the test compound (max. 10 mg/mL) is diluted with 0.025% Tween20 by factor 50 and 10 µL of this solution is pipetted into a microtiter plate (96-well format). […] The test plates are incubated in the dark at 24° C. and 96% relative humidity (rh). The inhibition of fungal growth is determined photometrically and visually after 3 - 7 days, depending on the pathosystem, and percent antifungal activity relative to the untreated check is calculated.
# Conidia of the fungus from cryogenic storage were directly mixed into nutrient broth (PDB potato dextrose broth). After placing a DMSO solution of the test compositions into a microtiter plate (96-well format), the nutrient broth containing the fungal spores was added.
# Alternaria solani = assay: Liquid culture test in well plates, Alternaria solani (early blight of tomato/potato), growth inhibition; type: cell-based; details: 48 hours, 24° C.
# Procedure: as §1
# Conidia of the fungus from cryogenic storage were directly mixed into nutrient broth (PDB potato dextrose broth). After placing a DMSO solution of the test compositions into a microtiter plate (96-well format) the nutrient broth containing the fungal spores was added.
Molecule,"inhibition at 0.25 ppm (Botrytis cinerea; Botrytis cinerea, Folpet 0.25 ppm alone, read-out: (B) inhibition (%))","inhibition at 0.5 ppm (Botrytis cinerea; Botrytis cinerea, Folpet 0.50 ppm alone, read-out: (B) inhibition (%))","inhibition at 1 ppm (Botrytis cinerea; Botrytis cinerea, Folpet 1.00 ppm alone, read-out: (B) inhibition (%))","inhibition at 0.25 ppm (Alternaria solani; Alternaria solani, Folpet 0.25 ppm alone, read-out: (B) inhibition (%))",(A) inhibition (%) (Botrytis cinerea; Aureobasidin A 0.0012 ppm alone),(A) inhibition (%) (Botrytis cinerea; Aureobasidin A 0.0025 ppm alone),(A) inhibition (%) (Botrytis cinerea; Aureobasidin A 0.0050 ppm alone),(A) inhibition (%) (Botrytis cinerea; Aureobasidin A 0.0100 ppm alone),(A) inhibition (%) (Botrytis cinerea; Aureobasidin A 0.0200 ppm alone),(A) inhibition (%) (Alternaria solani; Aureobasidin A 0.02 ppm alone)
"O=C1c2ccccc2C(=O)N1SC(Cl)(Cl)Cl [Folpet, folpet, reference compound]",21%,44%,78%,3%,,,,,,
Aureobasidin A,,,,,6%,6%,4%,34%,41%,24%
